The target of experiment [1] is interaction between PD-1 and PD-L1 (Homo sapiens, UniProt Q9NZQ7). As to the kind of experiment: PD-1/PD-L1 protein-protein interaction assay (ALPHA). The class given is binding. As to conditions: 2 nM His-tagged human PD-L1, 0.6 nM PD-1-Fc, AlphaScreen. A general note: Alpha assays give light when donor and acceptor beads are brought close together.
Experiment [2] deals with T1, PD-1/PD-L1 interaction (Homo sapiens, UniProt Q9NZQ7).
T1 construct: expressed in transfected cells
As to the kind of experiment: PD-1/PD-L1 blockage cell-based bioassay (Jurkat NFAT luciferase / CHO-PDL1 co-culture). The conditions noted are these: Jurkat NFAT cells co-cultured with CHO-PDL1 cells, 6 h, luminescence.

Chain of interaction between PD-1 and PD-L1 (Q9NZQ7 19-238 limits assumed): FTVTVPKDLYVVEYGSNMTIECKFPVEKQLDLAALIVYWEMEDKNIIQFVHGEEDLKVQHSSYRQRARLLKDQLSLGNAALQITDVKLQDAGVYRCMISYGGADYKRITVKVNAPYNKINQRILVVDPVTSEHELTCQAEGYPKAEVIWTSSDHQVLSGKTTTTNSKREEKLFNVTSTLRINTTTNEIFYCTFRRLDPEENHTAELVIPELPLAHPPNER
T1 sequence (Q9NZQ7 19-290): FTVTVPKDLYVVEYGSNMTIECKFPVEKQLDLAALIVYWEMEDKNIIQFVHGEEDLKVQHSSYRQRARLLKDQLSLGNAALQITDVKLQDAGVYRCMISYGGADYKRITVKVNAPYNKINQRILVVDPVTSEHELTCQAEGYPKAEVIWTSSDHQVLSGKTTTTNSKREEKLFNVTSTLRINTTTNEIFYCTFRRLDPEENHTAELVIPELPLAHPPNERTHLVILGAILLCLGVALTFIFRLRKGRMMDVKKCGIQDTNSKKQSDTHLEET

As a reminder, the IC50 is the concentration that gives 50% inhibition. Low values mean greater potency in that assay, high ones weaker potency in that assay. Consider `COc1cc(-n2ncc3c(-c4cccc(-c5ccc(CN6CC7(CNC(=O)C7)C6)c(OC)n5)c4Cl)cccc32)ncc1CNC[C@@H](C)O` [Example 110, (R)-2-((6-(2-chloro-3-(1-(5-(((2-hydroxypropyl)amino)methyl)-4-methoxypyridin-2-yl)-1H-indazol-4-yl)phenyl)-2-methoxypyridin-3-yl)methyl)-2,6-diazaspiro[3.4]octan-7-one], for which the concentration for half-maximal inhibition (IC50) was under 1 nM in experiment [1] and 201 to 2000 nM in experiment [2].
The matching figures for `COc1cc(-n2ncc3c(-c4cccc(-c5ccc(C6=NCCN6)c(OC)n5)c4Cl)cccc32)cc(OC)c1CN1CC2(CNC(=O)C2)C1` [Example 76, 2-(4-(4-(2-chloro-3-(5-(4,5-dihydro-1H-imidazol-2-yl)-6-methoxypyridin-2-yl)phenyl)-1H-indazol-1-yl)-2,6-dimethoxybenzyl)-2,6-diazaspiro[3.4]octan-7-one]: under 1 nM and under 200 nM.
As to `COc1cc(-n2ncc3c(-c4cccc(-c5ccc(CN6CC7(CCC(=O)N7)C6)c(OC)n5)c4Cl)cccc32)ncc1CNCCO` [Example 116, 2-((6-(2-chloro-3-(1-(5-(((2-hydroxyethyl)amino)methyl)-4-methoxypyridin-2-yl)-1H-indazol-4-yl)phenyl)-2-methoxypyridin-3-yl)methyl)-2,5-diazaspiro[3.4]octan-6-one], the IC50 is under 1 nM in experiment [1] and under 200 nM in experiment [2].
On to `COc1cc(-n2ncc3c(-c4cccc(-c5ccc(CN6CC7(CNC(=O)C7)C6)c(OC)n5)c4Cl)cccc32)ncc1CNC[C@@H]1CCC(=O)N1` [Example 108, (S)-2-((6-(2-chloro-3-(1-(4-methoxy-5-((((5-oxopyrrolidin-2-yl)methyl)amino)methyl)pyridin-2-yl)-1H-indazol-4-yl)phenyl)-2-methoxypyridin-3-yl)methyl)-2,6-diazaspiro[3.4]octan-7-one], for which the figures for the IC50 in experiment [1] and in experiment [2] were under 1 nM and under 200 nM, respectively.
The matching figures for `COc1cc(-n2ccc3c(-c4cccc(-c5ccc(CNCC(C)(C)C(=O)O)c(OC)n5)c4Cl)cccc32)cc(OC)c1CNC[C@@H]1CCC(=O)N1` [Example 48]: 10 to 100 nM and over 2000 nM.
In the case of `COc1cc(-n2ncc3c(-c4cccc(-c5ccc(CN6CC7(CNC(=O)C7)C6)c(OC)n5)c4Cl)cccc32)cc(OC)c1CN[C@H](C(=O)O)[C@@H](C)O` [Example 141, (4-(4-(2-chloro-3-(6-methoxy-5-((7-oxo-2,6-diazaspiro[3.4]octan-2-yl)methyl)pyridin-2-yl)phenyl)-1H-indazol-1-yl)-2,6-dimethoxybenzyl)-L-threonine], the half-inhibitory concentration (IC50) in experiment [1] is under 1 nM; in experiment [2], under 200 nM.
As to `CCOC(=O)[C@@H](CO)NCc1c(OC)cc(-n2ncc3c(-c4cccc(-c5ccc(CNC[C@@H]6CCC(=O)N6)c(OC)n5)c4Cl)cccc32)cc1OC` [Example 147, Ethyl (2R)-2-[({4-[4-(2-chloro-3-{6-methoxy-5-[({[(2S)-5-oxopyrrolidin-2-yl]methyl)amino)methyl}pyridin-2-yl}phenyl)-1H-indazol-1-yl]-2,6-dimethoxyphenyl}methyl)amino]-3-hydroxypropanoate], the results for the concentration for half-maximal inhibition (IC50) in experiment [1] and in experiment [2] were 1 to 10 nM and 201 to 2000 nM, respectively.
The matching figures for `CCOC(=O)[C@@H](NCc1c(OC)cc(-n2ncc3c(-c4cccc(-c5ccc(CNC[C@@H]6CCC(=O)N6)c(OC)n5)c4Cl)cccc32)cc1OC)[C@@H](C)O` [Example 146, (2S,3R)-ethyl 2-((4-(4-(2-chloro-3-(6-methoxy-5-(((((S)-5-oxopyrrolidin-2-yl)methyl)amino)methyl)pyridin-2-yl)phenyl)-1H-indazol-1-yl)-2,6-dimethoxybenzyl)amino)-3-hydroxybutanoate]: under 1 nM and 201 to 2000 nM.
